According to patent publication US4208327A, “5-Aryl-1-(2-oxazolin-2-yl)-1H-1,4-benzodiazepines and related compounds” (G. D. Searle & Co., priority 1979, dated 1980):

What was measured:
[1] = Potentiation of a sub-hypnotic dose of pentobarbital sodium (loss of righting reflex); assay type: in vivo, mice; settings: for ED50 (95% confidence limits), potentiation of pentobarbital sodium (loss of righting reflex): pentobarbital sodium 20 mg/kg i.p.
From the text: In this procedure an ED50 for loss of righting reflex was established.

[2] = Blockade of pentylenetetrazole induced clonic convulsions, intragastric; assay type: in vivo, mice; settings: for ED50: Mus musculus, po
Experimental: Exp. Ther., 108, 168 (1953)]. […] Both test compounds were administered intragastrically at specific time periods prior to the pentylenetetrazole challenge, and the ED50 for blockade of clonic convulsions was determined for each time period. Duration of activity is inferred from increases in the ED50 with time.

[3] = Comparison of durations of anti-conflict activity, drug crossover design, 16 hours after treatment; assay type: in vivo, squirrel monkey; settings: molar equivalent dose, 16 hours later; for bar pressing rate during the conflict segments, % of pre-compound control levels: 14 squirrel monkeys, crossover
[4] = Blockade of pentylenetetrazole induced clonic convulsions, intravenous; assay type: in vivo, mice; settings: for ED50: Mus musculus, read-out: ED50 (95% confidence limits), anti-pentylenetetrazole effect
[5] = Rotarod test (muscle relaxant); assay type: in vivo, mice; settings: intragastric; for ED50: Mus musculus, po, read-out: Rotarod ED50 (95% confidence limits)
Experimental: Using this procedure [after Dunham, N.W. and T.S. Miya, J. Amer. Pharm. […] The compounds were administered intragastrically to mice at varying time periods before being placed on the horizontal rotating (4.4 rpm) rod. Different groups of mice were assigned to each time period so that a subject was tested only once. A testing trial consisted of two opportunities to stay on the rod for one minute. ED50 's were calculated for each time period.

[6] = Multiple VI-FR conflict procedure (anti-conflict, anti-anxiety); assay type: in vivo, squirrel monkey; settings: intragastric
[7] = intragastric, .25 hours, 15 min
[8] = 5 min, read-out: ED50 (95% confidence limits), anti-pentylenetetrazole effect, 5 min
[9] = 0.5 h, read-out: ED50 (95% confidence limits), anti-pentylenetetrazole effect, 30 min
[10] = read-out: ED50 (95% confidence limits), anti-pentylenetetrazole effect, 15 min
[11] = read-out: ED50 (95% confidence limits), anti-pentylenetetrazole effect, 1 hour
[12] = read-out: ED50 (95% confidence limits), anti-pentylenetetrazole effect, 2 hours
[13] = read-out: ED50 (95% confidence limits), anti-pentylenetetrazole effect, 4 hours
[14] = read-out: ED50 (95% confidence limits), anti-pentylenetetrazole effect, 8 hours

For `CN1C(=O)CN=C(c2ccccc2)c2cc(Cl)ccc21` [Diazepam, diazepam, reference compound], the “ED50 (95% confidence limits), potentiation of pentobarbital sodium (loss of righting reflex)” value ([1]; intragastric, 1.0 hours) was 3.8(2.7-5.4) mg/kg, the “ED50 (95% confidence limits), potentiation of pentobarbital sodium (loss of righting reflex)” value ([1]; intragastric, 2.0 hours) was 3.6(2.4-5.4) mg/kg and the “ED50 (95% confidence limits), potentiation of pentobarbital sodium (loss of righting reflex)” value [1, 7] was 4.1(2.7-6.3) mg/kg. For the same compound, the “time to peak anti-pentylenetetrazole activity” value [2] was no more than 15 min, the “increase of ED50 by 8 hours” value [2] was 2 fold and the ED50 [2, 8] was 1.1 mg/kg. For the same compound, the ED50 [2, 9] was 0.8 mg/kg, the ED50 [2, 10] was 0.9 mg/kg and the ED50 [2, 11] was 0.8 mg/kg. It also gave an ED50 [2, 12] of 0.7 mg/kg, an ED50 [2, 13] of 1.6 mg/kg and an ED50 [2, 14] of 1.4 mg/kg. For the same compound, the “duration of anti-anxiety (anti-conflict) action, in words” value [3] was “still produced pronounced anti-conflict effects”, the “bar pressing rate during the conflict segments, % of pre-compound control levels” value [3] was 1265% and the ED50 ([4]; 1 min, intravenous, 1 min) was 0.07 mg/kg. The ED50 ([4]; 0.5 h, intravenous, 30 min) was 0.23 mg/kg, the ED50 ([4]; intravenous, 15 min) was 0.26 mg/kg and the ED50 ([4]; intravenous, 1 hour) was 0.48 mg/kg. The ED50 ([4]; intravenous, 2 hours) was 0.75 mg/kg, the ED50 ([4]; intravenous, 4 hours) was 1.16 mg/kg and the ED50 ([4]; intravenous, 8 hours) was 1.78 mg/kg. For the same compound, the “increase of ED50 over the 8 hour period” value ([4]; intravenous, 8 hours) was 25 fold.

`Clc1ccc2c(c1)C(c1ccccc1Cl)=NCCN2C1=NCCO1` [Compound I, 7-chloro-5-(o-chlorophenyl)-2,3-dihydro-1-(2-oxazolin-2-yl)-1H-1,4-benzodiazepine] gave an ED50 ([5]; 0.08 h, .08 hours) of 8.5 mg/kg, an ED50 ([5]; 0.5 h, .5 hours) of 8.9 mg/kg and an ED50 ([5]; 1.0 hours) of 24 mg/kg. For the same compound, the ED50 ([5]; 2.0 hours) was 74.9 mg/kg, the ED50 ([5]; .25 hours) was 2.9 mg/kg and the “increase of rotarod ED50 from 15 minutes to 2 hours” value [5] was 25 fold. For the same compound, the “time to peak effect (rotarod)” value [5] was no more than 15 min, the “duration of action (rotarod)” value ([5]; compared with diazepam) was “shorter duration of action” and the “loss of potency over the two hour period (rotarod)” value ([5]; two hours) was “rapidly lost potency”. For the same compound, the “Conflict (FR) bar pressing rate, percentage of average pre-compound control rate” value ([6]; 1.26 mg/kg, N 5) was 1519%, the “Non-Conflict (VI) bar pressing rate, percentage of average pre-compound control rate” value ([6]; 1.26 mg/kg, N 5) was 46% and the “Conflict (FR) bar pressing rate, percentage of average pre-compound control rate” value ([6]; .07 mg/kg, N 5) was 281%. For the same compound, the “Non-Conflict (VI) bar pressing rate, percentage of average pre-compound control rate” value ([6]; .07 mg/kg, N 5) was 100%, the “dose response of bar pressing rates during the conflict segment” value ([6]; .07 to 1.26 mg/kg) was “clear dose responsive increase in bar pressing rates during the conflict segment” and the “Conflict (FR) bar pressing rate, percentage of average pre-compound control rate” value ([6]; .126 mg/kg, N 6) was 514%. The “Non-Conflict (VI) bar pressing rate, percentage of average pre-compound control rate” value ([6]; .126 mg/kg, N 6) was 101%, the “Conflict (FR) bar pressing rate, percentage of average pre-compound control rate” value ([6]; .404 mg/kg, N 6) was 1286% and the “Non-Conflict (VI) bar pressing rate, percentage of average pre-compound control rate” value ([6]; .404 mg/kg, N 6) was 100%. The “duration of sedative-hypnotic activity” value ([1]; compared with a standard benzodiazepine (diazepam)) was “shorter duration of sedative-hypnotic activity”, the “ED50 (95% confidence limits), potentiation of pentobarbital sodium (loss of righting reflex)” value ([1]; intragastric, 1.0 hours) was 24.1(17.9-32.4) mg/kg and the “ED50 (95% confidence limits), potentiation of pentobarbital sodium (loss of righting reflex)” value ([1]; intragastric, 2.0 hours) was 39.1(28.1-54.3) mg/kg. The “ED50 (95% confidence limits), potentiation of pentobarbital sodium (loss of righting reflex)” value [1, 7] was 5.6(3.8-8.4) mg/kg, the “increase of ED50 for potentiating pentobarbital sodium” value ([1]; intragastric, two hour period) was “about 7 fold” and the “time to peak anti-pentylenetetrazole activity” value [2] was no more than 15 min. For the same compound, the “change of ED50 in 30 minutes” value ([2]; 30 minutes) was “nearly doubled”, the “increase of ED50 by 8 hours” value [2] was “about 20 fold” and the ED50 [2, 8] was 3.8 mg/kg. The ED50 [2, 9] was 1.9 mg/kg, the ED50 [2, 10] was 1 mg/kg and the ED50 [2, 11] was 1.8 mg/kg. It also gave an ED50 [2, 12] of 6.2 mg/kg, an ED50 [2, 13] of 7.1 mg/kg and an ED50 [2, 14] of 19.6 mg/kg. The duration of activity ([2]; compared with diazepam) was “much shorter duration of activity than Diazepam”, the “duration of anti-anxiety (anti-conflict) action, in words” value [3] was “shorter duration of action of anti-anxiety effect” and the “bar pressing rate during the conflict segments, % of pre-compound control levels” value [3] was 123%. It also gave an ED50 ([4]; 1 min, intravenous, 1 min) of 0.12 mg/kg, an ED50 ([4]; 0.5 h, intravenous, 30 min) of 0.23 mg/kg and an ED50 ([4]; intravenous, 15 min) of 0.18 mg/kg. It also gave an ED50 ([4]; intravenous, 1 hour) of 0.57 mg/kg, an ED50 ([4]; intravenous, 2 hours) of 1.44 mg/kg and an ED50 ([4]; intravenous, 4 hours) of 4.79 mg/kg. For the same compound, the ED50 ([4]; intravenous, 8 hours) was 17.8 mg/kg, the “time to peak activity” value ([4]; intravenous) was “one” and the anti-convulsant effectiveness ([4]; intravenous as well as intragastric route) was “effective as an anti-convulsant”. The “increase of ED50 over the 8 hour period” value ([4]; intravenous, 8 hours) was roughly 150 fold and the duration of activity ([4]; intravenous, compared with diazepam) was “shorter duration of activity”.
